Patent publication US11014956B2, “Compositions and methods for altering second messenger signaling” (Memorial Sloan Kettering Cancer Center, priority 2013, dated 2021)
Positions count from the first letter of the chain named. In names and notes the source's numbering stands. Entries after “also recorded” stand apart in the source; their conditions may differ.

B1: S165A, N172A, K372A triple mutant: cGAS dsDNA-binding triple mutant (protein)
chain: PDKLKKVLDKLRLKRKDIAEAAETVAKVVERLLRRMQKRESEFKGVEQLNTGSYYEHVKISAPNEFDVMFKLEVPRIELQEYYETGAFYLVKFKRIPRGNPLSHFLEGEVLSATKMLSKFRKIIKEEVKEIKDIDVSVEKEKPGSPAVTLLIRNPEEISVDIILALESKGSWPISTKEGLPIQGWLGTKVRTNLRREPFYLVPKNAKDGNSFQGETWRLSFSHTEAYILNNHGIEKTCCESSGAKCCRKECLKLMKYLLEQLKKEFQELDAFCSYHVKTAIFHMWTQDPQDSQWDPRNLSSCFDKLLAFFLECLRTEKLDHYFIPKFNLFSQELIDRKSKEFLSKKIEYERNNGFPIFDKL
B2: S165A, N172A, Y200A triple mutant: cGAS dsDNA-binding triple mutant (protein)
chain: B1 chain with Y54A, A226K
B3: R158A, R161A, K395A triple mutant: cGAS dsDNA-binding triple mutant (protein)
chain: B1 chain with R12A, R15A, A19S, A26N, A226K, K249A
B4: N196A, Y200A, K372A triple mutant: cGAS dsDNA-binding triple mutant (protein)
chain: B1 chain with A19S, A26N, N50A, Y54A

Columns and labels:
cGAS [1] = target: T1, cGAS (Mus musculus, UniProt Q8C6L5); assay: cGAS activity assay, c[G(2′,5′)pA(3′,5′)p] formation by thin-layer chromatography; format: biochemical; conditions: for cyclic dinucleotide formation with the nucleotide as cGAS substrate in place of GTP or ATP (in words): cGAS plus dsDNA
T1 construct: Purified recombinant full length (fl, amino acids 1-507) and truncated (tr, amino acids 147-507) murine cGAS; His6-SUMO (N, cleaved yes); made in house; host or cells: E. coli BL21 (DE3) RIL
Source text: (§1) To validate the structural results, we established an activity assay using thin-layer chromatography (FIG. 11) and monitored cyclic dinucleotide c[G(2′,5′)pA(3′,5′)p] formation from ATP and GTP using purified recombinant full-length and truncated cGAS proteins. cGAS required the presence of dsDNA and Mg^2+ or Mn^2+ for activity (FIG. 5A-B). […] The trace amount of c[G(2′,5′)pA(3′,5′)p]detected for the specific ssDNA used in this experiment was attributable to a stretch of sequence complementarity, and the substitution of G by 8-oxoguanine (8-oxoG) was sufficient to destabilize its predicted interaction and eliminate the residual cGAS activity.
(§2) Purified recombinant full length (fl, amino acids 1-507) and truncated (tr, amino acids 147-507) murine cGAS, including truncated mutant versions 1-6, were incubated in 20 μL reactions containing: 1 μM cGAS, 3.3 μM dsDNA, 5 mM MgCl2, 150 mM NaCl, 20 mM Tris-HCl, pH 7.5 at 25° C., 1 mM DTT, 10% glycerol, 1 mM each of nucleotides (typically ATP and GTP), and α^32P or γ^32P radiolabelled NTPs or dNTPs at 37° C. for 40 min. Reactions were stopped by addition of 20 μL of 50 mM EDTA. 2 μL of reaction solution was spotted onto high-performance TLC plates (HPTLC silica gel, 60 Å pores, F254, 10×10 cm, cat #1.05628.0001, EMD Millipore) and products were separated with Solvent 1 (NH4HCO3:C2H5OH:H2O [0.2 M:30%:70%], w:v:v) or 2 (NH4HCO3:C2H5OH:H2O [0.025 M:30%:70%], w:v:v) at 25° C. for 1 h. Reaction products were visualized by UV (254 nm) and phosphorimaging (Typhoon FLA 9500, GE Healthcare). Images were processed using Adobe Photoshop and Illustrator CS5. The TLC conditions used were largely based on a protocol established to separate 3′,5′ cAMP (Higashida et al, 2012).
(§3) The yield of c[G(2′,5′)pA(3′,5′)p] generated was calculated by densitometry analysis of TLC experiments, using FIJI (ImageJ 1.47i) or spectrophotemetrically (absorbance at 260 nm, E260=25.4×10^3) after purification from HPLC. For densitometry analyses, the fraction of α^32P-labelled c[G(2′,5′)pA(3′,5′)p] over total radioactivity per lane (c[G(2′,5′)pA(3′,5′)p]plus remaining α^32P-labelled ATP or GTP) was calculated.

Raw264.7 cells = conditions: concentrations as low as; cited from earlier work
THP 1 cells = conditions: concentrations as low as; cited from earlier work
[2] = test system: IFN-β luciferase reporter; assay: IFN-β luciferase reporter assay in HEK 293 cells co-expressing cGAS and STING; format: cell-based; conditions: for cGAS function in cells (in words): alanine mutants of full-length cGAS expressed in HEK 293 cells
Source text: To assess the impact on cGAS function in cells, we generated additional alanine mutants of cGAS for expression in mammalian cells. The full-length cGAS mutants together with STING and an IFN-β luciferase reporter were transiently expressed in HEK 293 cells. […] (Arg364, Tyr 421; FIG. 2F, 4B), while single mutants of these residues only slightly impaired cGAS function (FIG. 7C). […] Similarly, conversion of the highly mobile Gly198 to sterically restricted proline abrogated cGAS activity (FIG. 13E).
3×10^4 HEK293 cells per 96-well were reverse-transfected in triplicates with a mixture of pGL3-IFNbeta-Gluc (50 ng), pLenti-EF1-Fluc (25 ng), pLenti-EF1-mSTING (25 ng) and cGAS-expression plasmid (25 ng, pMAX-cGAS WT or mutants) or Control plasmid pMAX-GFP (Amaxa) using Trans-IT LT1 (MirusBio, Madison, Wis.). After 36 h cells were lysed in passive lysis buffer. Firefly and gaussia Luciferase activities were determined on an EnVision reader (Perkin Elmer, Waltham, Mass.) using the respective substrates D-luciferin and coelenterazine (PJK GmbH, Kleinblittersdorf, Germany). IFNbeta-Gluc values were normalized to constitutive firefly luciferase values and fold induction was calculated in relation to control-plasmid pMAX-GFP.

cGAS [3] = assay: cGAS activity assay, c[G(2′,5′)pA(3′,5′)p] formation by thin-layer chromatography; format: biochemical, mouse; conditions: for c[G(2′,5′)pA(3′,5′)p] formation by cGAS protein in vitro (in words): purified recombinant cGAS incubated with DNA
Source text: as §1, §2, §3

T1 sequence (Q8C6L5 whole entry, the tested form may be a part): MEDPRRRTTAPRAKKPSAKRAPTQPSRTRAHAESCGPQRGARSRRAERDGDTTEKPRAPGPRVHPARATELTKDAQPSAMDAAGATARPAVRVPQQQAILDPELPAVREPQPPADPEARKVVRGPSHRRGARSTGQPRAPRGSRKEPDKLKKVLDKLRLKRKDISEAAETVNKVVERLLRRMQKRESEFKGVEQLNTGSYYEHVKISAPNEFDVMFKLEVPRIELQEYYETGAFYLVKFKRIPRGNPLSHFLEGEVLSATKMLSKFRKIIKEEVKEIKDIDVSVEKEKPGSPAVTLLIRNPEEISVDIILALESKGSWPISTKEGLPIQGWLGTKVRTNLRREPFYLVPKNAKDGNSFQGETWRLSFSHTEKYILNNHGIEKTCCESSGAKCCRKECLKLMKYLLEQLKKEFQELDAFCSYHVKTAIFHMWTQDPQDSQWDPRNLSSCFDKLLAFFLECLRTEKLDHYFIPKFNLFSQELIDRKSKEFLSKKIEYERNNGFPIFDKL

Molecule | cGAS function in cells (in words) [2] | c[G(2′,5′)pA(3′,5′)p] formation by cGAS protein in vitro (in words) (cGAS [3]) | further results
16 bp dsDNA: 16 bp dsDNA used for crystallography (SEQ ID NO: 47 and 48) (chain 1 AAATTGCCGAAGACGAA; chain 2 TTTCGTCTTCGGCAATT; DNA, backbone not given here) [reference compound] |  |  | stimulation of cGAS cyclic dinucleotide formation by the nucleic acid (in words) (cGAS [1]; ATP and GTP as substrates): elicited some activity
Nc1ncnc2c1ncn2[C@H]1C[C@H](O)[C@@H](COP(=O)(O)OP(=O)(O)OP(=O)(O)O)O1 [2′-dATP, reference compound] |  |  | cyclic dinucleotide formation with the nucleotide as cGAS substrate in place of GTP or ATP (in words) (cGAS [1]): forms; also recorded: markedly reduced formation of cyclic GA-dinucleotides
Nc1nc2c(ncn2[C@H]2C[C@H](O)[C@@H](COP(=O)(O)OP(=O)(O)OP(=O)(O)O)O2)c(=O)[nH]1 [2′-dGTP, reference compound] |  |  | cyclic dinucleotide formation with the nucleotide as cGAS substrate in place of GTP or ATP (in words) (cGAS [1]): not at all; also recorded: unable to form a cyclic dinucleotide
Nc1ncnc2c1ncn2[C@@H]1O[C@H](COP(=O)(O)OP(=O)(O)OP(=O)(O)O)C[C@H]1O [3′-dATP, reference compound] |  |  | cyclic dinucleotide formation with the nucleotide as cGAS substrate in place of GTP or ATP (in words) (cGAS [1]): markedly reduced formation of cyclic GA-dinucleotides
Nc1ncnc2c1ncn2[C@@H]1O[C@H](COP(=O)(O)OP(=O)(O)O)[C@@H](O)[C@H]1O [ADP, reference compound] |  |  | cyclic dinucleotide formation with the nucleotide as cGAS substrate in place of GTP or ATP (in words) (cGAS [1]): reduced levels of c[G(2′,5′)pA(3′,5′)p]
Nc1ncnc2c1ncn2[C@@H]1O[C@H](COP(=O)(O)O)[C@@H](O)[C@H]1O [AMP, reference compound] |  |  | cyclic dinucleotide formation with the nucleotide as cGAS substrate in place of GTP or ATP (in words) (cGAS [1]): no product or intermediate formation
Nc1nc2c(ncn2[C@@H]2O[C@H](COP(=O)(O)OP(=O)(O)O)[C@@H](O)[C@H]2O)c(=O)[nH]1 [GDP, reference compound] |  |  | cyclic dinucleotide formation with the nucleotide as cGAS substrate in place of GTP or ATP (in words) (cGAS [1]): reduced amount of the cylic-dinucleotide
Nc1nc2c(ncn2[C@@H]2O[C@@H]3COP(=O)(O)O[C@H]4[C@@H](O)[C@H](n5cnc6c(N)ncnc65)O[C@@H]4COP(=O)(O)O[C@H]3[C@H]2O)c(=O)[nH]1 [c[G(3′,5′)pA(3′,5′)p]] |  |  | concentration at which production of interferon is stimulated (Raw264.7 cells): 10 nM; concentration at which production of interferon is stimulated (THP 1 cells): 10 nM
Arg161: cGAS single alanine mutant of DNA binding residue Arg161 | not sufficient to impair cGAS activity |  | 
Asp213: cGAS single mutant, catalytic residue Asp213 replaced by Ala | non-functional; also recorded: functionally dead |  | 
Asp307: cGAS single mutant, catalytic residue Asp307 replaced by Ala | non-functional; also recorded: functionally dead |  | 
G198A: cGAS single mutant G198A | did not severely impair cGAS function |  | 
Glu211: cGAS single mutant, catalytic residue Glu211 replaced by Ala | non-functional; also recorded: functionally dead | functionally dead | 
S199A: cGAS single mutant S199A | did not severely impair cGAS function | retained substantial activity | 
Y421A, R364A: cGAS dual mutant of the base stacking residues Arg364 and Tyr421 | loss in the majority of activity |  | cGAS function in cells (in words) ([2]; Tyr 421): abrogation of cGAS activity
cGAS (tr): truncated murine cGAS, amino acids 147-507 |  | exhibits activity, albeit less than cGAS (fl) | 
cGAS: mouse cyclic GMP-AMP synthase, wild type, full length (amino acids 1-507), recombinant or expressed in cells |  |  | estimated observed rate constant (cGAS [3]; multiple turnover conditions): 0.19 min⁻¹; turnovers per enzyme molecule (cGAS [3]; multiple turnover conditions, 40 min): over 750; original ATP and GTP converted to c[G(2′,5′)pA(3′,5′)p] (cGAS [3]; multiple turnover conditions, within 40 min, n=5): Over 78%; enhanced luciferase activity compared to a control plasmid ([2]; HEK 293 cells, STING and IFN-β luciferase reporter transiently expressed): ~15 fold
B1 | complete loss in activity and ability to stimulate interferon production | complete loss in activity | 
B2 | partial loss in activity | partial loss in activity | 
B3 | complete loss in activity and ability to stimulate interferon production | complete loss in activity | 
B4 | complete loss in activity and ability to stimulate interferon production | complete loss in activity | 
